Format in all cases: biochemical
The target in assay [1] is T1, Mycobacterium avium CAR (SEQ ID NO:153) Variant 1 of Table 14, K275D N276S F278S A283C I300G N335D (Mycobacterium avium, UniProt A0ACD7BNV2, A283C/F278S/G391S/I300G/K275D/N276S/N335D). In words: CAR lysate assay with 30 mM 6ACA ± 0.25M HMD (Table 14), CAR Variant 1. The conditions noted are these: CAR Variant 1, Table 14, 6ACA.
In assay [2] the target is T1, Mycobacterium avium CAR (SEQ ID NO:153) Variant 1 of Table 14, K275D N276S F278S A283C I300G N335D. In words: CAR lysate assay with 10 mM 6ACA ± 125 mM HMD or 0.25M HMD (Table 15), CAR Variant 1.
Assay [3] has as its target Mycobacterium avium CAR (SEQ ID NO:153) Variant 1 of Table 14 (K275D N276S F278S A283C I300G N335D), Variant 4 S274P (Mycobacterium avium, UniProt A0ACD7BNV2, A283C/F278S/G391S/I300G/K275D/N276S/N335D/S274P). The assay can be described thus: CAR lysate assay with 30 mM 6ACA ± 0.25M HMD (Table 14), Variant 4. As to conditions: Variant 4, Table 14, 6ACA.
In assay [4] the target is Mycobacterium avium CAR (SEQ ID NO:153) Variant 1 of Table 14 (K275D N276S F278S A283C I300G N335D), Variant 12 M296H (Mycobacterium avium, UniProt A0ACD7BNV2, A283C/F278S/G391S/I300G/K275D/M296H/N276S/N335D). The assay can be described thus: CAR lysate assay with 30 mM 6ACA ± 0.25M HMD (Table 14), Variant 12. The conditions noted are these: Variant 12, Table 14, 6ACA.
Assay [5] concerns the target Mycobacterium avium CAR (SEQ ID NO:153) Variant 1 of Table 14 (K275D N276S F278S A283C I300G N335D), Variant 33 A282P M296A F425L (Mycobacterium avium, UniProt A0ACD7BNV2, A282P/A283C/F278S/F425L/G391S/I300G/K275D/M296A/N276S/N335D). The assay can be described thus: CAR lysate assay with 30 mM 6ACA ± 0.25M HMD (Table 14), Variant 33. As to conditions: Variant 33, Table 14, 6ACA.

For assay [6], the target named is Mycobacterium avium CAR (SEQ ID NO:153) Variant 1 of Table 14 (K275D N276S F278S A283C I300G N335D), Variant 34 A282P M296A F425T (Mycobacterium avium, UniProt A0ACD7BNV2, A282P/A283C/F278S/F425T/G391S/I300G/K275D/M296A/N276S/N335D). The assay can be described thus: CAR lysate assay with 30 mM 6ACA ± 0.25M HMD (Table 14), Variant 34. The conditions noted are these: Variant 34, Table 14, 6ACA.

Assay [7] addresses Mycobacterium avium CAR (SEQ ID NO:153) Variant 1 of Table 14 (K275D N276S F278S A283C I300G N335D), Variant 35 A282P M296A M389S F425N (Mycobacterium avium, UniProt A0ACD7BNV2, A282P/A283C/F278S/F425N/G391S/I300G/K275D/M296A/M389S/N276S/N335D). The assay can be described thus: CAR lysate assay with 30 mM 6ACA ± 0.25M HMD (Table 14), Variant 35. As to conditions: Variant 35, Table 14, 6ACA.

The target in assay [8] is Mycobacterium avium CAR (SEQ ID NO:153) Variant 1 of Table 14 (K275D N276S F278S A283C I300G N335D), Variant 36 A282P M296A M389S N401T F425L (Mycobacterium avium, UniProt A0ACD7BNV2, A282P/A283C/F278S/F425L/G391S/I300G/K275D/M296A/M389S/N276S/N335D/N401T). The assay can be described thus: CAR lysate assay with 30 mM 6ACA ± 0.25M HMD (Table 14), Variant 36. As to conditions: Variant 36, Table 14, 6ACA.

For assay [9], the target named is Mycobacterium avium CAR (SEQ ID NO:153) Variant 1 of Table 14 (K275D N276S F278S A283C I300G N335D), Variant 37 A282P M296A M389S N401T F425N (Mycobacterium avium, UniProt A0ACD7BNV2, A282P/A283C/F278S/F425N/G391S/I300G/K275D/M296A/M389S/N276S/N335D/N401T). In words: CAR lysate assay with 30 mM 6ACA ± 0.25M HMD (Table 14), Variant 37. The conditions noted are these: Variant 37, Table 14, 6ACA.

The target in assay [10] is Mycobacterium avium CAR (SEQ ID NO:153) Variant 1 of Table 14 (K275D N276S F278S A283C I300G N335D), Variant 38 A282P M296A N401T F425L (Mycobacterium avium, UniProt A0ACD7BNV2, A282P/A283C/F278S/F425L/G391S/I300G/K275D/M296A/N276S/N335D/N401T). In words: CAR lysate assay with 30 mM 6ACA ± 0.25M HMD (Table 14), Variant 38. As to conditions: Variant 38, Table 14, 6ACA.
Assay [11] concerns carboxylic acid reductase (CAR). As to conditions: 6ACA as substrate, 30 mM or 10 mM; HMD 125 mM or 0.25M.

For `NCCCCCC(=O)O` [6ACA], the Vmax entry in assay [1] was “+++ (>10.0)”; in assay [2] (CAR Variant 1, Table 15, 6ACA), “+++ (>10.0)”; in assay [3], “+++ (>10.0)”; in assay [4], “+++ (>10.0)”; in [5] it was “+ (<5)”; in [6], “+ (<5)”. Also, the Vmax entry in [7], in [8], in assay [9] and in [10] was “++ (5.0-10.0)” in each case.

Consider `NCCCCCCN` [HMD, hexamethylenediamine, reference compound], for which the “inhibition of CAR in the presence of HMD” value in assay [11] is reported as “inhibited”. For the same compound, in assay [2] (CAR Variant 1, 0.25M HMD, 10 mM 6ACA), the “% inhibition @ 0.25M HMD & 10 mM 6ACA” value is recorded as “++ (60-90)”.

Source of the values: patent US20240294885A1, “ENGINEERED ENZYMES AND METHODS OF MAKING AND USING” (priority 2021, published 2024).
